Values quoted from earlier work in US20240344094A1, “METHODS AND COMPOSITIONS USEFUL FOR THE PRODUCTION OF OLEFINIC ESTER” (THE REGENTS OF THE UNIVERSITY OF CALIFORNIA, priority 2021, published 2024).

Row | solubility in water (20° in water) | solubility limit in water (water) | SMILES
1 | about 90 g/L |  | C=C(C)CCO [Isoprenol, 3-methyl-3-buten-1-ol]
2 |  | ~10 g/L | CC(=O)OCCC(C)C [isoamyl acetate]
